Measured values as given in ChEMBL document CHEMBL1127703, “Structural requirements for respiratory inhibition by rotenoids; is an intact B/C ring system essential?” (Bioorg Med Chem Lett, 1994).

Assay: Tested for the ability to block NADH dehydrogenase in a preparation of submitochondrial particles obtained from blow fly flight muscle
Type: tissue-based, Calliphoridae, Muscle tissue

C=C(C)[C@H]1Cc2cc(C(=O)n3c(C)nc4ccccc43)ccc2O1
-Log IC50: 7.82

C=C(C)[C@H]1Cc2c(ccc(Cn3c(C)nc4ccccc43)c2OC)O1
-Log IC50: 6.82

C=C(C)[C@H]1Cc2c(ccc(C(=O)n3c(C)nc4ccccc43)c2OC)O1
-Log IC50: 6.6

COc1ccc(CC2NCCc3cc4c(cc32)C[C@H](C(C)CSc2ccccc2)O4)cc1OC (some centres not stated)
-Log IC50: 7.9

C=C(C)[C@H]1Cc2cc3c(cc2O1)CCNC3Cc1ccc(OC)c(OC)c1 (some centres not stated)
-Log IC50: 6.76

C=C(C)[C@H]1Cc2cc(Cn3c(C)nc4ccccc43)ccc2O1
-Log IC50: 7.3

C=C(C)[C@H]1Cc2c(ccc3c2O[C@@H]2COc4cc(OC)c(OC)cc4[C@@H]2C3=O)O1 [ROTENONE]
-Log IC50: 8.7
